Assays:
Experiment in all cases: cells
[1] = test system: COLO-824; assay type: functional, cell-based, Homo sapiens; conditions: Homo sapiens, COLO-824
Description: SANGER: Inhibition of human COLO-824 cell growth in a cell viability assay.

[2] = test system: D-263MG; assay type: functional, cell-based, Homo sapiens; conditions: Homo sapiens, D-263MG
Description: SANGER: Inhibition of human D-263MG cell growth in a cell viability assay.

[3] = test system: DB; assay type: functional, cell-based; conditions: Homo sapiens
Description: SANGER: Inhibition of human DB cell growth in a cell viability assay.

[4] = test system: DOHH-2; assay type: functional, cell-based; conditions: Homo sapiens;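 also: growth inhibition of human DOHH-2 cells, read out with a cell viability assay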
Description: SANGER: Inhibition of human DOHH-2 cell growth in a cell viability assay.

[5] = test system: EM-2; assay type: functional, cell-based; conditions: Homo sapiens;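 also: growth inhibition of EM-2 cells, read out with a cell viability assay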
Description: SANGER: Inhibition of human EM-2 cell growth in a cell viability assay.

[6] = test system: ES6; assay type: functional, cell-based, Homo sapiens; conditions: Homo sapiens, ES6;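 also: growth inhibition of human ES6 cells, read out with a cell viability assay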
Description: SANGER: Inhibition of human ES6 cell growth in a cell viability assay.

[7] = test system: EW-16; assay type: functional, cell-based, Homo sapiens; conditions: Homo sapiens, EW-16;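 also: growth inhibition of human EW-16 cells, read out as cell viability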
Description: SANGER: Inhibition of human EW-16 cell growth in a cell viability assay.

[8] = test system: EOL1; assay type: functional, cell-based; conditions: Homo sapiens;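 also: growth inhibition of EoL-1 cells, read out by a cell viability assay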
Description: SANGER: Inhibition of human EoL-1-cell cell growth in a cell viability assay.

[9] = test system: GR-ST; assay type: functional, cell-based; conditions: Homo sapiens
Description: SANGER: Inhibition of human GR-ST cell growth in a cell viability assay.

[10] = test system: HCC 2998; assay type: functional, cell-based, Homo sapiens; conditions: Homo sapiens, HCC 2998;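 also: growth inhibition of human HCC2998 cells, measured with a cell viability read-out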
Description: SANGER: Inhibition of human HCC2998 cell growth in a cell viability assay.

[11] = test system: HT; assay type: functional, cell-based; conditions: Homo sapiens
Description: SANGER: Inhibition of human HT cell growth in a cell viability assay.

[12] = test system: KINGS-1; assay type: functional, cell-based, Homo sapiens; conditions: Homo sapiens, KINGS-1;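 also: cell viability assay measuring suppression of KINGS-1 cell growth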
Description: SANGER: Inhibition of human KINGS-1 cell growth in a cell viability assay.

[13] = test system: KM12; assay type: functional, cell-based, Homo sapiens; conditions: Homo sapiens, KM12;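 also: KM12 cell growth inhibition, read out with a cell viability assay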
Description: SANGER: Inhibition of human KM12 cell growth in a cell viability assay.

[14] = test system: KY821; assay type: functional, cell-based; conditions: Homo sapiens;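 also: growth inhibition of human KY821 cells, read out by a cell viability assay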
Description: SANGER: Inhibition of human KY821 cell growth in a cell viability assay.

[15] = test system: LS-1034; assay type: functional, cell-based, Homo sapiens; conditions: Homo sapiens, LS-1034
Description: SANGER: Inhibition of human LS-1034 cell growth in a cell viability assay.

[16] = test system: MHH-NB-11; assay type: functional, cell-based, Homo sapiens; conditions: Homo sapiens, MHH-NB-11;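 also: growth inhibition of human MHH-NB-11 cells, read out by a cell viability assay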
Description: SANGER: Inhibition of human MHH-NB-11 cell growth in a cell viability assay.

[17] = test system: NB6; assay type: functional, cell-based, Homo sapiens; conditions: Homo sapiens, NB6;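 also: growth inhibition of NB6 cells, read out by a cell viability assay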
Description: SANGER: Inhibition of human NB6 cell growth in a cell viability assay.

[18] = test system: NCI-N87; assay type: functional, cell-based, Homo sapiens; conditions: Homo sapiens, NCI-N87;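 also: growth inhibition of human NCI-N87 cells, read out with a cell viability assay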
Description: SANGER: Inhibition of human NCI-N87 cell growth in a cell viability assay.

[19] = test system: NH-12; assay type: functional, cell-based, Homo sapiens; conditions: Homo sapiens, NH-12;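 also: growth inhibition of NH-12 cells, read out with a cell viability assay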
Description: SANGER: Inhibition of human NH-12 cell growth in a cell viability assay.

[20] = test system: OMC-1; assay type: functional, cell-based, Homo sapiens; conditions: Homo sapiens, OMC-1;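 also: growth inhibition of the OMC-1 cell line, measured by a cell viability assay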
Description: SANGER: Inhibition of human OMC-1 cell growth in a cell viability assay.

[21] = test system: RS4-11; assay type: functional, cell-based; conditions: Homo sapiens;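 also: growth inhibition of RS4-11 cells, read out by a cell viability assay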
Description: SANGER: Inhibition of human RS4-11 cell growth in a cell viability assay.

[22] = test system: SW 954; assay type: functional, cell-based, Homo sapiens; conditions: Homo sapiens, SW 954;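 also: growth inhibition of SW954 human cancer cells, read out as cell viability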
Description: SANGER: Inhibition of human SW954 cell growth in a cell viability assay.

[23] = test system: SW 962; assay type: functional, cell-based, Homo sapiens; conditions: Homo sapiens, SW 962;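 also: growth inhibition of human SW962 cells, read out by a cell viability assay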
Description: SANGER: Inhibition of human SW962 cell growth in a cell viability assay.

[24] = test system: AM-38; assay type: functional, cell-based, Homo sapiens; conditions: Homo sapiens, AM-38;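 also: growth inhibition of AM-38 cells of human origin, read out by a cell viability assay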
Description: SANGER: Inhibition of human AM-38 cell growth in a cell viability assay.

[25] = test system: TE-6; assay type: functional, cell-based, Homo sapiens; conditions: Homo sapiens, TE-6;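 also: growth inhibition of TE-6 cells, read out with a cell viability assay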
Description: SANGER: Inhibition of human TE-6 cell growth in a cell viability assay.

[26] = test system: TGBC1TKB; assay type: functional, cell-based, Homo sapiens; conditions: Homo sapiens, TGBC1TKB;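 also: growth inhibition of TGBC1TKB cells, read out by a cell viability assay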
Description: SANGER: Inhibition of human TGBC1TKB cell growth in a cell viability assay.

[27] = test system: no-10; assay type: functional, cell-based, Homo sapiens; conditions: Homo sapiens;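 also: growth inhibition of no-10 cells, read out with a cell viability assay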
Description: SANGER: Inhibition of human no-10 cell growth in a cell viability assay.

[28] = test system: COLO-320-HSR; assay type: functional, cell-based; conditions: Homo sapiens;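 also: growth inhibition of COLO-320-HSR cells, determined with a cell viability assay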
Description: SANGER: Inhibition of human COLO-320-HSR cell growth in a cell viability assay.

Row | Compound | IC50 [1] [µM] | IC50 [2] [µM] | IC50 [3] [µM] | IC50 [4] [µM] | IC50 [5] [µM] | IC50 [6] [µM] | IC50 [7] [µM] | IC50 [8] [µM] | IC50 [9] [µM] | IC50 [10] [µM] | IC50 [11] [µM] | IC50 [12] [µM] | IC50 [13] [µM] | IC50 [14] [µM] | IC50 [15] [µM] | IC50 [16] [µM] | IC50 [17] [µM] | IC50 [19] [µM] | IC50 [20] [µM] | IC50 [21] [µM] | other results
1 | C=C1C(=O)O[C@@H]2C3O[C@]3(C)CC/C=C(\C)CC[C@@H]12 (stereo partly specified) | > 5 | > 5 | > 5 | > 5 | > 5 | > 5 | > 5 | > 5 | > 5 | > 5 | > 5 | > 5 | > 5 | > 5 | > 5 | > 5 | > 5 | > 5 | > 5 | > 5 | IC50 [18]: > 5 µM; IC50 [22]: > 5 µM; IC50 [23]: > 5 µM; IC50 [24]: > 5 µM; IC50 [25]: > 5 µM; IC50 [26]: > 5 µM; IC50 [27]: 1.34 µM; IC50 [28]: > 5 µM
2 | CC1=C2C[C@H]3[C@@H](CC=C4C[C@@H](O)CC[C@@]43C)[C@@H]2CC[C@]12O[C@@H]1C[C@H](C)CN[C@H]1[C@H]2C [CYCLOPAMINE] | > 16 | > 16 | > 16 | 9.36 | > 16 | > 16 | > 16 | > 16 | > 16 | > 16 | > 16 | > 16 | > 16 | > 16 | > 16 | > 16 | > 16 | > 16 | > 16 | > 16 | IC50 [22]: > 16 µM; IC50 [23]: > 16 µM; IC50 [24]: > 16 µM; IC50 [25]: > 16 µM; IC50 [26]: > 16 µM; IC50 [27]: 9.9 µM; IC50 [28]: > 16 µM
3 | CS(=O)(=O)CCNCc1ccc(-c2ccc3ncnc(Nc4ccc(OCc5cccc(F)c5)c(Cl)c4)c3c2)o1 [LAPATINIB] | > 2 | > 2 | > 2 | > 2 | > 2 | > 2 | > 2 | > 2 | > 2 | > 2 | > 2 | > 2 | > 2 | > 2 | > 2 | > 2 | > 2 | > 2 | > 2 | > 2 | IC50 [22]: > 2 µM; IC50 [23]: > 2 µM; IC50 [24]: > 2 µM; IC50 [25]: 1.55 µM; IC50 [26]: > 2 µM; IC50 [27]: > 2 µM; IC50 [28]: > 2 µM
4 | CCc1nc(N)nc(N)c1-c1ccc(Cl)cc1 [PYRIMETHAMINE] | > 20 | > 20 | > 20 | > 20 | 12.4 | 17.2 | 15.8 | > 20 | 0.709 | 5.78 | > 20 | > 20 | 2.32 | > 20 | 18.3 | 13.7 | > 20 | > 20 | > 20 | > 20 | IC50 [22]: > 20 µM; IC50 [23]: > 20 µM; IC50 [24]: > 20 µM; IC50 [25]: > 20 µM; IC50 [26]: > 20 µM; IC50 [27]: > 20 µM; IC50 [28]: 4 µM
5 | O=C(/C=C/c1ccccc1)NC(NC(=S)Nc1cccc2cccnc12)C(Cl)(Cl)Cl (stereo unspecified) [SALUBRINAL] | > 16 | > 16 | > 16 | 10.2 | > 16 | > 16 | > 16 | > 16 | > 16 | > 16 | 8.94 | > 16 | > 16 | > 16 | > 16 | > 16 | > 16 | > 16 | > 16 | > 16 | IC50 [22]: > 16 µM; IC50 [23]: > 16 µM; IC50 [24]: > 16 µM; IC50 [25]: > 16 µM; IC50 [26]: > 16 µM; IC50 [27]: > 16 µM; IC50 [28]: > 16 µM

Source: ChEMBL document CHEMBL1201861, “Genomics of Drug Sensitity in Cancer screening data, Wellcome Trust Sanger Institute”
